According to patent US10059689B2, “Substituted heteroaryl compounds and methods of use” (Sunshine Lake Pharma Co., Ltd., priority 2014, dated 2018):

Test: Pharmacokinetics after intravenous and oral administration in rats
Assay type: in vivo
Settings: for clearance (CL) / AUC(0-t) / half-life / Vd: iv dosing, 1 mg/kg; for F: oral bioavailability; for AUC(0-t) / half-life / Vd: rat, plasma; for Vd: read-out: Vss
Protocol: The LC/MS/MS system used in the analysis consists of an Agilent 1200 Series vacuum degasser, binary pump, well-plate autosampler, thermostatted column compartment, the Agilent G6430 Triple Quadrupole Mass Spectrometer with an electrosprayionization (ESI) source. Quantitative analysis was carried out using MRM mode. The parameters for MRM transitions are in the Table A.
An Agilent XDB-C18, 2.1×30 mm, 3.5 μM column was used for the analysis. 5 μL of the samples were injected. Analysis condition: The mobile phase was 0.1% formic acid in water (A) and 0.1% formic acid in methanol (B). The flow rate was 0.4 mL/min. And the gradient of Mobile phase was in the Table B.
Alternatively, an Agilent 6330 series LC/MS/MS spectrometer equipped with G1312A binary pumps, a G1367A autosampler and a G1314C UV detector were used in the analysis. An ESI source was used on the LC/MS/MS spectrometer. The analysis was done in positive ion mode as appropriate and the MRM transition for each analyte was optimized using standard solution. A Capcell MP-C18 100×4.6 mm I.D., […] column (Phenomenex, Torrance, Calif., USA) was used during the analysis. The mobile phase was 5 mM ammonia acetate, 0.1% MeOH in water (A): 5 mM ammonia acetate, 0.1% MeOH in acetonitrile (B) (70:30, v/v). The flow rate was 0.6 mL/min. Column was maintained at ambient temperature. 20 μL of the samples were injected.
The compounds disclosed herein are assessed in pharmacokinetic studies in mice, rats, dogs or monkeys. The compounds are administered as a water solution, 2% HPMC+1% TWEEN®80 in water solution, 5% DMSO+5% solutol in saline, 4% MC suspension or capsule. For the intravenous administration, the animals are generally given at 1 or 2 mg/kg dose. For the oral (p.o.) dosing, mice and rats are generally given 5 or 10 mg/kg dose, and dogs and monkeys are generally given 10 mg/kg dose. The blood samples (0.3 mL) are drawn at 0.25, 0.5, 1.0, 2.0, 3.0, 4.0, 6.0, 8.0, 12 and 24 h time points or 0.083, 0.25, 0.5, 1.0, 2.0, 4.0, 6.0, 8.0 and 24 h time points and centrifuged at 3,000 or 4000 rpm for 2 to 10 min. The plasma solutions are collected, and stored at −20° C. or −70° C. until analyzed by LC/MS/MS as described above.

Structure (SMILES) | clearance (CL) [mL/min/kg] | F [%] | AUC(0-t) [ng·h/mL] | half-life [min] | Vd [L/kg]
CN(c1nc(Nc2cnn(C)c2)ncc1Cl)C1CCN(c2ccc(C#N)cn2)CC1 [Ex. 5, 6-(4-((5-chloro-2-((1-methyl-1H-pyrazol-4-yl)amino)pyrimidin-4-yl) (methyl)amino)piperidin-1-yl)nicotinonitrile] | 29.7 | 182.46 | 572 | 30.6 | 0.67
Cc1nn(C)cc1Nc1ncc(Cl)c(NC2CCN(c3ccc(C#N)cn3)CC2)n1 [Ex. 10, 6-(4-((5-chloro-2-((1,3-dimethyl-1H-pyrazol-4-yl)amino)pyrimidin-4-yl)amino)piperidin-1-yl)nicotinonitrile] | 9.67 | 75.3 | 1740 | 43.2 | 0.63
Cc1c2ccc(Nc3ncc(Cl)c(NC4CCN(c5ccc(C#N)cn5)CC4)n3)cc2nn1C [Ex. 4] | 7.17 | 78.76 | 2340 | 103 | 0.72
Cn1cc(Nc2ncc(Cl)c(NC3CCN(c4ccc(C#N)cn4)CC3)n2)cn1 [Ex. 1, 6-(4-((5-chloro-2-((1-methyl-1H-pyrazol-4-yl)amino)pyrimidin-4-yl)amino)piperidin-1-yl)nicotinonitrile] | 3.83 | 136.8 | 4660 | 58.8 | 0.31

Further lines, results first:

clearance (CL) [mL/min/kg] | F [%] | AUC(0-t) [ng·h/mL] | half-life [min] | Vd [L/kg] | Structure (SMILES)
11.3 | 39.2 | 1480 | 29.4 | 0.5 | Cc1c2ccc(Nc3ncc(Cl)c(NC4CCN(c5ccc(C#N)nn5)CC4)n3)cc2nn1C [Ex. 12, 6-(4-((5-chloro-2-((2,3-dimethyl-2H-indazol-6-yl)amino)pyrimidin-4-yl)amino)piperidin-1-yl)pyridazine-3-carbonitrile]
17.7 | 61.8 | 931 | 27 | 0.62 | Cc1nn(C)cc1Nc1ncc(Cl)c(NC2CCN(c3ccc(C#N)nn3)CC2)n1 [Ex. 11, 6-(4-((5-chloro-2-((1,3-dimethyl-1H-pyrazol-4-yl)amino)pyrimidin-4-yl)amino)piperidin-1-yl)pyridazine-3-carbonitrile]
